Measurements: patent US20150203444A1, “POLYMORPHS OF N-((S)-3-AMINO-1-(HYDROXYAMINO)-3-METHYL-1-OXOBUTAN-2-YL)-4-(((1R,2R)-2-(HYDROXYMETHYL)CYCLOPROPYL)BUTA-1,3-DIYNYL)BENZAMIDE” (Achaogen, Inc., priority 2011, published 2015)
Structures can show the parent of a compound that is named as a salt.

Experiments:
[1] = system: Pseudomonas aeruginosa ATCC27853; test: MIC by broth microdilution (CLSI), APAE001; type: cell-based; conditions: ATCC27853, read-out: Minimum Inhibitory Concentration (MIC) APAE001
Experimental: (§1) Bacterial isolates were cultivated from −70° C. frozen stocks by overnight passages at 35° C. in ambient air on Mueller-Hinton agar (Beckton Dickinson, Franklin Lakes, N.J.). Clinical isolates tested were obtained from various geographically diverse hospitals in the US and abroad (Focus Diagnostics, Herndon, Va. and JMI, North Liberty, Iowa). Quality control strains were from the American Type Culture Collection (ATCC; Rockville, Md.).
(§2) Minimum Inhibitory Concentrations (MICs) were determined by the broth microdilution method in accordance with the Clinical and Laboratory Standards Institute (CLSI) guidelines. In brief, organism suspensions were adjusted to a 0.5 McFarland standard to yield a final inoculum between 3×10^5 and 7×10^5 colony-forming units (CFU)/mL. Drug dilutions and inocula were made in sterile, cation adjusted Mueller-Hinton Broth (Beckton Dickinson). An inoculum volume of 100 μL was added to wells containing 100 μL of broth with 2-fold serial dilutions of drug. All inoculated microdilution trays were incubated in ambient air at 35° C. for 18-24 h. Following incubation, the lowest concentration of the drug that prevented visible growth (OD600 nm<0.05) was recorded as the MIC. Performance of the assay was monitored by the use of laboratory quality-control strains and levofloxacin, a compound with a defined MIC spectrum, in accordance with CLSI guidelines. […]

E. coli ATCC25922 = test: MIC by broth microdilution (CLSI), AECO001; type: cell-based; conditions: Escherichia coli, ATCC25922, read-out: Minimum Inhibitory Concentration (MIC) AECO001
Experimental: as §1, §2

[2] = system: clinical isolate of Pseudomonas aeruginosa expressing a normal level of efflux activity; test: MIC by broth microdilution (CLSI), APAE002; type: cell-based; conditions: read-out: Minimum Inhibitory Concentration (MIC) APAE002
Experimental: as §1, §2

[3] = system: Klebsiella pneumoniae ATCC43816; test: MIC by broth microdilution (CLSI), AKPN001; type: cell-based; conditions: ATCC43816, read-out: Minimum Inhibitory Concentration (MIC) AKPN001
Experimental: as §1, §2

[4] = Stability at elevated temperature (XRPD form check and HPLC purity); type: physicochemical; conditions: for % AUC (Following exposure): HPLC purity after seven days at 60° C.; for % AUC (Control): HPLC purity, control before exposure
Experimental: Approximately 10 mg of Form A, Form B and Form C were weighed to individual 4-mL amber vials covered with a kimwipe and stored in an oven at 60° C. and ambient pressure. After seven days of exposure, the solids were be analyzed by XRPD to check for form conversion and HPLC for purity (see Table 5).

[5] = Competitive slurry experiments (XRPD); type: physicochemical; conditions: competitive slurry of Forms A, B and C together, IPA:IBAc (10:90), room temperature
Experimental: Approximately 10 mg of Form A, B and C were weighed into 2.0-mL vials equipped with a stir bar. 0.5 mL of solvent was added and the resulting free flowing slurry was allowed to equilibrate with stirring at room temperature. Samples were pulled at one day and seven day time points, filtered through 0.45 micron centrifuge filters, dried overnight at room temperature under vacuum and analyzed by XRPD (see Table 7).

[6] = Solid-state properties of the polymorphs (summary statement); type: physicochemical
[7] = Stability at elevated humidity (XRPD form check); type: physicochemical; conditions: summary statement
Experimental: Approximately 30 mg of Form A, Form B and Form C were placed on an XRPD slide and kept inside a glass jar containing a water solution saturated with NaCl. The solution maintains 75% relative humidity inside the jar. The container was covered with aluminum foil to prevent exposure to light. The sample was kept in this environment for seven days at room temperature. After this time period the slide was removed from the chamber and analyzed immediately by XRPD (see Table 4).

Structure (SMILES)	MIC [1] [µg/mL]	MIC (E. coli ATCC25922) [µg/mL]	MIC [2] [µg/mL]	MIC [3] [µg/mL]	% AUC (Following exposure) [4] [% AUC]	% AUC (Control) [4] [% AUC]	XRPD Final Form (1 day) [5]	Hygroscopicity ([6]; solid)	Stability to exposure to elevated relative humidity [7]	Stability to prolonged thermal stress ([4]; summary statement)	Thermodynamic stability among the three polymorphic forms [6]
CC(C)(N)[C@H](NC(=O)c1ccc(C#CC#C[C@@H]2C[C@H]2CO)cc1)C(=O)NO [I (trifluoroacetate salt), N—((S)-3-amino-1-(hydroxyamino)-3-methyl-1-oxobutan-2-yl)-4-(((1R,2R)-2-(hydroxymethyl)cyclopropyl)buta-1,3-diynyl)benzamide trifluoroacetate salt]	< 2	< 2	< 2	< 2	–	–	–	–	–	–	–
CC(C)(N)[C@H](NC(=O)c1ccc(C#CC#C[C@@H]2C[C@H]2CO)cc1)C(=O)NO [Form A, N—((S)-3-amino-1-(hydroxyamino)-3-methyl-1-oxobutan-2-yl)-4-(((1R,2R)-2-(hydroxymethyl)cyclopropyl)buta-1,3-diynyl)benzamide]	–	–	–	–	94.5	99.2	A + B	moderately hygroscopic	–	–	–
CC(C)(N)[C@H](NC(=O)c1ccc(C#CC#C[C@@H]2C[C@H]2CO)cc1)C(=O)NO [Form B, N—((S)-3-amino-1-(hydroxyamino)-3-methyl-1-oxobutan-2-yl)-4-(((1R,2R)-2-(hydroxymethyl)cyclopropyl)buta-1,3-diynyl)benzamide]	–	–	–	–	97.4	99.6	A + B	–	exhibited stability	exhibited stability	most thermodynamically stable
CC(C)(N)[C@H](NC(=O)c1ccc(C#CC#C[C@@H]2C[C@H]2CO)cc1)C(=O)NO [Form C, N—((S)-3-amino-1-(hydroxyamino)-3-methyl-1-oxobutan-2-yl)-4-(((1R,2R)-2-(hydroxymethyl)cyclopropyl)buta-1,3-diynyl)benzamide]	–	–	–	–	95.5	99.0	A + B	–	–	–	metastable
